Experimental findings from PubChem BioAssay (NCI) are described below.

Test systems include MDA-MB-231 breast; PC-3 prostate; MDA-MB-435; DU-145 prostate; HS 578T breast; SNB-78 CNS; M19-MEL melanoma; DLD-1 colon; DMS 114 small cell lung; DMS 273 small cell lung.
Common to all, as to assay: DTP human tumour cell line panel, 48 h

“And” between values parts separate entries of the source, which are not always exact repeats. Equal values may be shown once.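 The compound was tested at five concentrations on cells cultured in 96-well plates, with a 48-hour exposure period. At the GI50, growth is halved. TGI: concentration producing complete growth inhibition.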

By GI50 is commonly meant the concentration that inhibits growth by half. Broadly, the TGI is the concentration giving total growth inhibition. The low end stands for more potent growth arrest, the high end for less potent growth arrest. Consider `CCCCCCN(CCCCCC)C(=N)c1ccnc2ccccc12`, for which the GI50 is 5.13 µM with MDA-MB-231 breast; 5.81 µM with PC-3 prostate; 3.21 µM in the assay on MDA-MB-435; 13.5 µM with DU-145 prostate; 12 µM in the assay with HS 578T breast. Also, the TGI turned out to be 21.3 µM in the assay with MDA-MB-231 breast; 20.2 µM with PC-3 prostate; 14.7 µM with MDA-MB-435; 26.6 µM in the assay on DU-145 prostate; 47.1 µM in the assay on HS 578T breast.

`[N-]=[N+]=NC1(N=[N+]=[N-])C(=O)NN=C(c2ccccc2)C1=O` (centres undefined): the TGI in the assay on MDA-MB-231 breast was above 100 µM; in the assay on PC-3 prostate it was above 100 µM; in the assay with MDA-MB-435 it was 42.6 µM; with DU-145 prostate it was above 100 µM; in the assay with HS 578T breast, above 100 µM.

On to `COc1ccc2[nH]c3c4c(c5cc(C(C)(C)C)ccc5c3c2c1)C(=O)N(c1ccccc1)C4=O`, for which the TGI in the assay with SNB-78 CNS was above 100 µM; with M19-MEL melanoma, above 100 µM; in the assay with DLD-1 colon, 30.3 µM; with DMS 114 small cell lung, above 100 µM.

For the compound `O=c1[nH]cnc2c(C3OC(CO)C(O)C3O)[nH]nc12` (centres undefined), the TGI in the assay with MDA-MB-231 breast was above 100 µM; in the assay on PC-3 prostate, above 100 µM; in the assay with MDA-MB-435 it was above 100 µM; in the assay on DU-145 prostate, 38.2 µM; with HS 578T breast, above 100 µM.

With `O=c1oc2ccc(Cl)cc2c(=O)n1-c1ccc(Cl)cc1F`, the GI50 in the assay with MDA-MB-231 breast was 0.397 µM; with PC-3 prostate it was 0.812 µM; in the assay on MDA-MB-435 it was 0.572 µM; with DU-145 prostate, 0.846 µM; in the assay on HS 578T breast, 0.285 µM. In addition, the TGI is 4.59 µM in the assay on MDA-MB-231 breast; 5.04 µM in the assay with PC-3 prostate; 4.86 µM in the assay with MDA-MB-435; 24.7 µM with DU-145 prostate; 1.97 µM in the assay with HS 578T breast.

`CS(=O)(=O)CCNCc1ccc(-c2ccc3ncnc(Nc4ccc(OCc5ccccc5)c(C(F)(F)F)c4)c3c2)o1`: the GI50 is 4.55 µM with MDA-MB-231 breast; 6.88 µM in the assay on PC-3 prostate; 4.8 µM in the assay with MDA-MB-435; 10.3 µM with DU-145 prostate; 4.16 µM in the assay with HS 578T breast. In addition, the TGI in the assay on MDA-MB-231 breast was 8.66 µM; in the assay with PC-3 prostate, above 21 µM; with MDA-MB-435, 10.5 µM; in the assay on DU-145 prostate, above 25 µM; in the assay on HS 578T breast, 12.2 µM.

On to `CC1(C)SC2C(C(=O)O)N=C(Cc3ccccc3)N2C1C(=O)O` (centres undefined), for which the TGI is above 100 µM with MDA-MB-231 breast; above 100 µM with PC-3 prostate; above 100 µM in the assay on MDA-MB-435; above 100 µM in the assay with DU-145 prostate; 95.7 µM in the assay on HS 578T breast.

With `CC(=O)CC(=O)N(CCN(C(=O)CC(C)=O)c1ccccc1)c1ccccc1`, the TGI in the assay with SNB-78 CNS, in the assay on M19-MEL melanoma, with DLD-1 colon and in the assay with DMS 114 small cell lung was above 100 µM in each case.

Consider `CC1(C)CCC(=O)c2c(O)ccc(O)c21`, for which the TGI in the assay on SNB-78 CNS, with M19-MEL melanoma and in the assay with DMS 273 small cell lung was above 100 µM throughout.

With `O=C1C(=O)c2cc([N+](=O)[O-])ccc2-c2ccccc21`, the GI50 in the assay with MDA-MB-231 breast is 1.64 µM; with PC-3 prostate it was 1.97 µM; in the assay on MDA-MB-435 it was 0.402 µM; in the assay on DU-145 prostate, 1.74 µM; in the assay with HS 578T breast, 1.68 µM. Moreover, the TGI with MDA-MB-231 breast is 3.15 µM; in the assay on PC-3 prostate it was 3.72 µM; in the assay on MDA-MB-435 it was 1.53 µM; in the assay on DU-145 prostate it was 3.16 µM; in the assay on HS 578T breast, 4.49 µM.

For `Nc1nc(N)c2nc(CNc3ccc(C(=O)CC(CCC(=O)O)C(=O)O)cc3)cnc2n1` (centres undefined), the GI50 was above 100 µM in the assay on MDA-MB-231 breast, 0.137 µM in the assay on MDA-MB-435, 2.24 µM with DU-145 prostate and above 100 µM in the assay with HS 578T breast. For the same compound, the TGI in the assay on MDA-MB-231 breast, in the assay with PC-3 prostate, with MDA-MB-435, with DU-145 prostate and in the assay on HS 578T breast was above 100 µM throughout.

Regarding `Cc1cc(C)c(C(=O)O)c(N)c1O`, the TGI in the assay with M19-MEL melanoma, in the assay on DLD-1 colon, in the assay on DMS 273 small cell lung and with DMS 114 small cell lung was above 100 µM throughout.

As to `Nc1ncc(-c2cnn(C3CCNCC3)c2)cc1-c1nc2ccccc2o1`, the GI50 in the assay on MDA-MB-231 breast was 2.32 µM; in the assay on PC-3 prostate it was 1.59 µM; with MDA-MB-435, 1.21 µM; in the assay on DU-145 prostate it was 1.75 µM; in the assay with HS 578T breast, 1.75 µM. In addition, the TGI in the assay on MDA-MB-231 breast turned out to be 6.56 µM; with PC-3 prostate it was 6.68 µM; with MDA-MB-435, 2.62 µM; in the assay on DU-145 prostate, 8.86 µM; with HS 578T breast, 4.28 µM.

In the case of `CC[C@H](C)c1occ2c(O)c(C(=O)O)c(=O)cc-2c1C`, the TGI with MDA-MB-231 breast is 50.6 µM; in the assay with PC-3 prostate, above 100 µM; in the assay with MDA-MB-435, 58 µM; in the assay with DU-145 prostate it was above 100 µM; in the assay with HS 578T breast, above 100 µM.

With `O=C(OC(C(=O)O)C(OC(=O)c1ccccc1)C(=O)O)c1ccccc1` (centres undefined) (tested in a mixture with another compound), the TGI was above 100 µM in the assay with SNB-78 CNS; above 100 µM in the assay with M19-MEL melanoma; above 100 µM with DLD-1 colon; 95.2 µM with MDA-MB-231 breast; > 100 µM and 14.1 µM in the assay with DMS 273 small cell lung; 33.5 µM with PC-3 prostate. For the same compound, the TGI with MDA-MB-435 was 62.7 µM; in the assay on DU-145 prostate it was above 100 µM; in the assay on HS 578T breast it was 64.8 µM.

Take `CCOC(=O)C12CCCC1(O)N(NC(=O)c1cccc(Cl)c1)C(C)=C2C(=O)OC` (centres undefined): the TGI in the assay on M19-MEL melanoma, in the assay with DLD-1 colon, with DMS 273 small cell lung and in the assay with DMS 114 small cell lung was above 100 µM in each case.

As to `CSc1nc(NC2OCC(OC(C)=O)C(OC(C)=O)C2OC(C)=O)c(N=CC=Nc2c(NC3OCC(OC(C)=O)C(OC(C)=O)C3OC(C)=O)nc(SC)n(C)c2=O)c(=O)n1C` (centres undefined), the TGI with M19-MEL melanoma, with DLD-1 colon, in the assay on DMS 273 small cell lung and in the assay with DMS 114 small cell lung was above 100 µM each time.

As to `CCCCCCCCCOC(=S)NC`, the TGI with M19-MEL melanoma was 53.9 µM; with DLD-1 colon, 34.9 µM; in the assay on DMS 273 small cell lung, 33.6 µM.
